Results: US20070299062A1 (The Procter & Gamble Company, priority 2006, published 2007)

Experiments:
MCH-1R = MCH-1R (UniProt Q99705); experiment: MCH-1R competition binding assay
Protocol: In vitro binding and function assays are performed on membranes derived from cells or tissues expressing endogenous MCH1R. Competition binding assays are performed to identify high affinity compounds. Briefly, either radiolabeled or europium labeled MCH with varying concentrations of competitor compound which are incubated with membranes expressing the receptor. Rat brain membrane or cell lines, including but not limited to human Kelly neuroblastoma cells, A-431 epidermoid cells, and rat PC-12 cells are known to express endogenous MCH1R and are used in the assay. Binding is allowed to proceed until equilibrium is reached then bound labeled MCH is separated from free MCH by capturing membranes onto a filter. The filters are washed to remove loosely associated MCH and labeled MCH is quantified. Data is analyzed and IC50 and Ki are calculated to determine compound affinity.

5-HT2c receptor = target: T1, 5-HT2c receptor (Homo sapiens, UniProt P28335); experiment: 5-HT2c receptor binding assay (3H-mesulergine competition); conditions: 1 nM 3H-mesulergine; read-out: Ki (nM) binding data 5-HT2C
T1 construct: purchased Perkin-Elmer or Euroscreen (named only as possible suppliers)
T1 sequence (P28335 33-458): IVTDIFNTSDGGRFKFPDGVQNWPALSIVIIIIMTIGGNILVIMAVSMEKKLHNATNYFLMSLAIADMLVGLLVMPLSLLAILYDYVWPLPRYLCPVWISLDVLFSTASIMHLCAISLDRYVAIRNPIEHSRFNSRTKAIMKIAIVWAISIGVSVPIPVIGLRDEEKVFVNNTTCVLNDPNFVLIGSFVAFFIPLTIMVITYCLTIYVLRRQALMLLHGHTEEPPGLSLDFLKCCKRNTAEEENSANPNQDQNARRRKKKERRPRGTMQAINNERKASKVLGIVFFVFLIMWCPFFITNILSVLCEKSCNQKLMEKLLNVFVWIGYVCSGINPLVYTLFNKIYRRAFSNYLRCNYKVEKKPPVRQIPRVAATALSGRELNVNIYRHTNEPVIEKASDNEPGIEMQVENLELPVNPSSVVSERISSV
Protocol: MCH antagonist compounds are evaluated for binding to the serotonin 5-HT2c receptor to determine receptor selectivity. Binding activity is assessed using a competitive assay with ^3H-mesulergine (Perkin Elmer), a 5-HT2c selective ligand, on membrane containing the 5-HT2c receptor. Briefly, 1 nM ^3H-mesulergine and varying concentrations of the compound are incubated with 5-HT2c receptor membranes, following an incubation period, the membranes are washed and ^3H-mesulergine bound to membranes is measured in a liquid scintillation counter. The amount of bound ^3H-mesulergine at the varying concentration of competitor compound is used to derive the affinity (Ki) of the compound for the 5-HT2c receptor. 5-HT2c receptor containing membranes are readily available from several companies including Perkin-Elmer and Euroscreen.

| Ki (MCH-1R) | Ki (5-HT2c receptor) | Structure (SMILES) |
| --- | --- | --- |
| 24 nM | 9550 nM | O=c1c2sc(-c3ccc(Cl)cc3)cc2ncn1[C@H]1CCc2cc(CN3CC[C@H](O)C3)ccc2C1 [6-(4-Chlorophenyl)-3-{(S)-6-[((S)-3-hydroxypyrrolidin-1-yl)methyl]-1,2,3,4-tetrahydronaphthalen-2-yl}thieno[3,2-d]pyrimidin-4(3H)-one] |
| 24.7 nM | 2370 nM | CC(=O)N1CCN(Cc2ccc3c(c2)CC[C@H](n2cnc4cc(-c5ccc(Cl)cc5Cl)sc4c2=O)C3)CC1 [(S)-3-[6-(4-Acetylpiperazin-1-ymethyl)-1,2,3,4-tetrahydronapthalen-2-yl]-6-(2,4dichlorophenyl)thieno[3,2-d]pyrimidin-4(3H)-one] |
| 813 nM | > 100000 nM | CC(=O)N1CCN(Cc2ccc3c(c2)CC[C@H](n2cnc4cc(-c5cccnc5F)sc4c2=O)C3)CC1 [(S)-3-[6-(4-Acetylpiperazin-1-ymethyl)-1,2,3,4-tetrahydronapthalen-2-yl]-6-(2-fluoropyridin-3-yl)thieno[3,2-d]pyrimidin-4(3H)-one] |
| 42 nM | 4790 nM | CN1CCN(C2CCN(Cc3ccc4c(c3)CC[C@H](n3cnc5cc(-c6ccc(Cl)cc6)sc5c3=O)C4)CC2)CC1 [(S)-6-(4-Chlorophenyl)-3-(6-{[4-(4-methylpiperazin-1-yl)piperidin-1-yl]methyl}-1,2,3,4-tetrahydronapthalen-2-yl)thieno[3,2-d]pyrimidin-4(3H)-one] |
| 65.2 nM | > 100000 nM | COc1ccc(-c2cc3ncn([C@H]4CCc5cc(CN6CCN(C(C)=O)CC6)ccc5C4)c(=O)c3s2)cc1 [(S)-3-[6-(4-Acetylpiperazin-1-ymethyl)-1,2,3,4-tetrahydronapthalen-2-yl]-6-(4-methoxyphenyl)thieno[3,2-d]pyrimidin-4(3H)-one] |
| 13.7 nM | 3730 nM | O=c1c2sc(-c3ccc(Cl)cc3)cc2ncn1[C@H]1CCc2cc(CN3CCCC3)ccc2C1 [(S)-6-(4-Chlorophenyl)-3-(6-pyrrolidin-1-ylmethyl-1,2,3,4-tetrahydronaphthalen-2-yl)thieno[3,2-d]pyrimidin-4(3H)-one] |
| 8.2 nM | > 100000 nM | CS(=O)(=O)C1CCN(Cc2ccc3c(c2)CC[C@H](n2cnc4cc(-c5ccc(Cl)cc5)sc4c2=O)C3)CC1 [6-(4-Chlorophenyl)-3-[(S)-6-(4-methanesulfonylpiperidin-1-ylmethyl)-1,2,3,4-tetrahydronapthealen-2-yl}thieno[3,2-d]pyrimidin-4(3H)-one] |
| 7.4 nM | 3170 nM | CN(C)Cc1ccc2c(c1)CC[C@H](n1cnc3cc(-c4ccc(Cl)cc4)sc3c1=O)C2 [6-(4-Chlorophenyl)-3-((S)-6-dimethylaminomethyl-1,2,3,4-tetrahydronapthealen-2-yl)thieno[3,2-d]pyrimidin-4(3H)-one] |
| 24.3 nM | 3730 nM | O=c1c2sc(-c3ccc(Cl)cc3)cc2ncn1[C@H]1CCc2cc(CN3CCCCC3)ccc2C1 [(S)-6-(4-Chlorophenyl)-3-(6-piperidin-1-ylmethyl-1,2,3,4-tetrahydronaphthalen-2-yl)thieno[3,2-d]pyrimidin-4(3H)-one] |
| 25 nM | 3080 nM | C[C@H](O)CNCc1ccc2c(c1)CC[C@H](n1cnc3cc(-c4ccc(Cl)cc4)sc3c1=O)C2 [6-(4-Chlorophenyl)-3-{(S)-6-[(S)-2-hydroxypropylaminomethyl]-1,2,3,4-tetrahydronapthealen-2-yl}thieno[3,2-d]pyrimidin-4(3H)-one] |

| Structure (SMILES) | Ki (MCH-1R) | Ki (5-HT2c receptor) |
| --- | --- | --- |
| CS(=O)(=O)N1CCN(Cc2ccc3c(c2)CC[C@H](n2cnc4cc(-c5cccc(C#N)c5)sc4c2=O)C3)CC1 | 310 nM | > 100000 nM |
| CS(=O)(=O)N1CCN(Cc2ccc3c(c2)CC[C@H](n2cnc4cc(-c5ccnc(Cl)c5)sc4c2=O)C3)CC1 | 157 nM | > 100000 nM |
| CS(=O)(=O)N1CCN(Cc2ccc3c(c2)CC[C@H](n2cnc4cc(-c5ccsc5)sc4c2=O)C3)CC1 | 60 nM | > 100000 nM |
